This passage reports IC50 results from BindingDB's records for doi:10.1016/j.bmcl.2012.10.084 (Takeda Pharmaceutical, 2012).

Bounds are passed on as bounds.

Usually IC50 stands for the point on the concentration scale where inhibition reaches its midpoint. A high value points to lower potency.

This assay addresses Mitogen-activated protein kinase kinase kinase 7 (TAK1) (Homo sapiens) (UniProt O43318). Briefly: Inhibition of TAK1.

Sequence of Mitogen-activated protein kinase kinase kinase 7 (TAK1) (Homo sapiens) (O43318 whole entry, looked up): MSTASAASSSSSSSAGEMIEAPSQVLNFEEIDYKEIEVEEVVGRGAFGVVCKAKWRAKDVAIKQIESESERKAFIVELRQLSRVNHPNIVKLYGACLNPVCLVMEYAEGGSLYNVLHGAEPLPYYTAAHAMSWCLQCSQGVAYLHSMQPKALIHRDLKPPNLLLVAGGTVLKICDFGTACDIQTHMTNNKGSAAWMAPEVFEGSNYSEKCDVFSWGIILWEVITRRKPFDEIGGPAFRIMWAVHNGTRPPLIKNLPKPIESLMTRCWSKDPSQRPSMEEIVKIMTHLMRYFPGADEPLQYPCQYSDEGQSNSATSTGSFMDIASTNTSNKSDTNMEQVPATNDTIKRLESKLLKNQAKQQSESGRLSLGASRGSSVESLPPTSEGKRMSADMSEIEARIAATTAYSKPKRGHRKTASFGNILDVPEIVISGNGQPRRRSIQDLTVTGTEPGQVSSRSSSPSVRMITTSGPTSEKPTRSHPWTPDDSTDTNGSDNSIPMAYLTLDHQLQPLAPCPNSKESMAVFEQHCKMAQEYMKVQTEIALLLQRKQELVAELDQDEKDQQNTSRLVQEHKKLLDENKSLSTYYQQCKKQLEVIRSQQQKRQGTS

The molecule `CC(C)(C)c1ccc(C(=O)Nc2cn3cc(-n4ccnc4)ccc3n2)cc1` displayed a half-inhibitory concentration (IC50) of more than 10 µM.
